Data on 2 compounds can be found in patent publication EP3095787A1, “[…] ACTIVE COMPOUNDS AS DAG-LIPASE INHIBITORS” (Universiteit Leiden, priority 2015, dated 2016).

One assay addresses FAAH. To be noted: reported value; cited from earlier work.
The test system of assay [1] is serine hydrolases. In words: Comparative and competitive gel ABPP selectivity in mouse brain membrane proteome (TAMRA-FP and MB064). Format: biochemical. As to conditions: 10 µM; TAMRA-FP 500 nM and MB064 250 nM. As for the experimental part: For gel based ABPP experiments mouse brain proteome (2.0 mg/mL, 20 µL) was preincubated for 30 min with vehicle (DMSO) or compound to be tested in 0.5 µL DMSO at rt. And subsequently treated with 500 nM (final concentration) TAMRA-FP (TAMRA-FP was bought at Thermo Fischer) for 15 minutes at rt. The reactions were quenched with 10 µL standard 3 x SDS page sample buffer. The samples were directly loaded and resolved on SDS page gel (10 % acrylamide). The gels were scanned with a ChemiDoc MP sytem (Biorad, Cy 3 settings, 605/50 filter) and analyzed using Image Lab 4.1.
To investigate the selectivity of compound 25 in the mouse brain proteome comparative and competitive ABPP was used with a broad-spectrum FP-based probe (TAMRA-FP) and the tailored DAGL-α ABP MB064. As a reference the widely used β-lactone-based DAGL-inhibitors THL and OMDM-188, two broad-spectrum covalent and irreversible serine hydrolase inhibitors, were firstly tested.

The test system of assay [2] is serine hydrolases. In words: Chemoproteomics with THL-biotin (MB108) and FP-biotin in mouse brain membrane proteome: other serine hydrolases. It is filed as biochemical. To be noted: 10 µM, 30 min. How it is done:
Since, the human serine hydrolase family contains approximately 200 family members, the selectivity in brain proteome was examined in a broader and more detailed manner. […] Mouse brain proteome (500 μL, 2.0 mg/mL) membrane or soluble fraction was incubated with vehicle (DMSO) or inhibitor (10 μM) in DMSO for 30 minutes at rt. The proteome was labeled with MB108 (2.5 μM, 30 minutes, rt) or FP-Biotin (5 μM, 30 minutes, 37 °C). Subsequently the labeling reaction was quenched and excess probe was removed by chloroform methanol precipitation. Precipitated proteome was suspended in 500 μL 6M Urea/25 mM ammonium bicarbonate and allowed to incubate for 15 minutes. 5 μL (1 M DTT) was added and the mixture was heated to 65 °C for 15 minutes. […] The sample was diluted with 6 mL PBS. 100 μL of 50% slurry of Avidin-Agarose from egg white (Sigma-Aldrich) was washed with PBS and added to the proteome sample. The beads were incubated with the proteome > 2h. The beads were isolated by centrifugation and washed with 0.5% (wt/vol) SDS and PBS (3x). […] Tryptic peptides were analyzed on a Surveyor nanoLC system (Thermo) hyphenated to a LTQ-Orbitrap mass spectrometer (Thermo). […] Fragmented precursor ions that were measured twice within 10 s were dynamically excluded for 60 s and ions with z < 2 or unassigned were not analyzed. […]

Structures are written as SMILES. “Also recorded” adds a separate entry of the source.

As for `O=C(CCCCCc1ccccc1)c1nc2ncccc2o1` [Compound 1, 1-(Oxazolo[4,5-b]pyridin-2-yl)-6-phenylhexan-1-one, reference compound], the “FAAH Activity assay reported pKi” value on FAAH was 9.70. As to `Cc1ccc(-c2cnc3nc(C(=O)CCCCCc4ccccc4)oc3c2)cc1` [Compound 25, 1-(6-(p-Tolyl)oxazolo[4,5-b]pyridin-2-yl)-6-phenylhexan-1-one], the “labeling of other bands (selectivity)” value in the assay on serine hydrolases [1] is given as “excellent selectivity; also recorded: did not inhibit labeling of any other band”. For the same compound, in the assay with serine hydrolases [2], the “labeling of other serine hydrolases” value is listed as “no other targets were detected; also recorded: not of any other serine hydrolase identified”.
